# Test results: ChEMBL document CHEMBL1201861, “Genomics of Drug Sensitity in Cancer screening data, Wellcome Trust Sanger Institute”
# Key:
# Assay in all cases: cells
# NCI-H1581 = format: functional, cell-based, Homo sapiens; conditions: Homo sapiens, NCI-H1581;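 further: cell growth inhibition read out by a viability assay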
# Description: SANGER: Inhibition of human NCI-H1581 cell growth in a cell viability assay.
# GOTO = format: functional, cell-based, Homo sapiens; conditions: Homo sapiens, GOTO;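 further: growth inhibition of GOTO cells, read out by a cell viability assay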
# Description: SANGER: Inhibition of human GOTO cell growth in a cell viability assay.
# HT-144 = format: functional, cell-based, Homo sapiens; conditions: Homo sapiens, HT-144
# Description: SANGER: Inhibition of human HT-144 cell growth in a cell viability assay.
# OMC-1 = format: functional, cell-based, Homo sapiens; conditions: Homo sapiens, OMC-1;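 further: growth inhibition of the OMC-1 cell line, measured by a cell viability assay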
# Description: SANGER: Inhibition of human OMC-1 cell growth in a cell viability assay.
# TGW = format: functional, cell-based, Homo sapiens; conditions: Homo sapiens, TGW;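 further: growth inhibition of human TGW cells, read out with a cell viability assay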
# Description: SANGER: Inhibition of human TGW cell growth in a cell viability assay.
# KURAMOCHI = format: functional, cell-based, Homo sapiens; conditions: Homo sapiens, KURAMOCHI;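 further: growth inhibition of KURAMOCHI cells, read out with a cell viability assay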
# Description: SANGER: Inhibition of human KURAMOCHI cell growth in a cell viability assay.
# LB2241-RCC = format: functional, cell-based, Homo sapiens; conditions: Homo sapiens, LB2241-RCC;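 further: cell viability assay measuring how strongly the cultured human renal carcinoma line is prevented from growing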
# Description: SANGER: Inhibition of human LB2241-RCC cell growth in a cell viability assay.
# Calu-6 = format: functional, cell-based, Homo sapiens; conditions: Homo sapiens, Calu-6;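 further: growth of human Calu-6 cells, read out by a cell viability assay, IC50 marking inhibition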
# Description: SANGER: Inhibition of human Calu-6 cell growth in a cell viability assay.
# NCI-H747 = format: functional, cell-based, Homo sapiens; conditions: Homo sapiens, NCI-H747;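 further: growth inhibition of human NCI-H747 cells, read out by a cell viability assay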
# Description: SANGER: Inhibition of human NCI-H747 cell growth in a cell viability assay.
# KINGS-1 = format: functional, cell-based, Homo sapiens; conditions: Homo sapiens, KINGS-1;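 further: cell viability assay measuring suppression of KINGS-1 cell growth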
# Description: SANGER: Inhibition of human KINGS-1 cell growth in a cell viability assay.
# NKM-1 = format: functional, cell-based, Homo sapiens; conditions: Homo sapiens, NKM-1;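 further: growth inhibition of NKM-1 cells, read out with a cell viability assay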
# Description: SANGER: Inhibition of human NKM-1 cell growth in a cell viability assay.
# NB13 = format: functional, cell-based, Homo sapiens; conditions: Homo sapiens, NB13;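 further: cell viability readout measuring growth inhibition of human NB13 cells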
# Description: SANGER: Inhibition of human NB13 cell growth in a cell viability assay.
# GCIY = format: functional, cell-based, Homo sapiens; conditions: Homo sapiens, GCIY;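 further: growth inhibition of the human GCIY cell line, read out by a cell viability assay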
# Description: SANGER: Inhibition of human GCIY cell growth in a cell viability assay.
# KM-H2 = format: functional, cell-based, Homo sapiens; conditions: Homo sapiens, KM-H2;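 further: growth inhibition of KM-H2 cells, read out by a cell viability assay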
# Description: SANGER: Inhibition of human KM-H2 cell growth in a cell viability assay.
# CW-2 = format: functional, cell-based, Homo sapiens; conditions: Homo sapiens, CW-2;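 further: growth inhibition of CW-2 cells, read out by a cell viability assay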
# Description: SANGER: Inhibition of human CW-2 cell growth in a cell viability assay.
# NMC-G1 = format: functional, cell-based, Homo sapiens; conditions: Homo sapiens, NMC-G1;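 further: growth inhibition of the NMC-G1 cell line, measured with a cell viability read-out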
# Description: SANGER: Inhibition of human NMC-G1 cell growth in a cell viability assay.
# NOMO-1 = format: functional, cell-based, Homo sapiens; conditions: Homo sapiens, NOMO-1;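 further: growth inhibition of human NOMO-1 cells measured by a cell viability assay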
# Description: SANGER: Inhibition of human NOMO-1 cell growth in a cell viability assay.
# HL-60 = format: functional, cell-based, Homo sapiens; conditions: Homo sapiens, HL-60;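 further: growth inhibition of human HL-60 cells, read out with a cell viability assay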
# Description: SANGER: Inhibition of human HL-60 cell growth in a cell viability assay.
# EW-1 = format: functional, cell-based, Homo sapiens; conditions: Homo sapiens, EW-1;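 further: growth inhibition of the human EW-1 cell line, read out by a cell viability assay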
# Description: SANGER: Inhibition of human EW-1 cell growth in a cell viability assay.
# MN-60 = format: functional, cell-based, Homo sapiens; conditions: Homo sapiens, MN-60;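 further: growth inhibition of the MN-60 cell line, determined with a cell viability assay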
# Description: SANGER: Inhibition of human MN-60 cell growth in a cell viability assay.
# LB996-RCC = format: functional, cell-based, Homo sapiens; conditions: Homo sapiens, LB996-RCC
# Description: SANGER: Inhibition of human LB996-RCC cell growth in a cell viability assay.
# HOP-62 = format: functional, cell-based, Homo sapiens; conditions: Homo sapiens, HOP-62;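 further: cell growth inhibition determined with a viability assay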
# Description: SANGER: Inhibition of human HOP-62 cell growth in a cell viability assay.
# TE-1 = format: functional, cell-based, Homo sapiens; conditions: Homo sapiens, TE-1;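 further: growth inhibition of the human TE-1 cell line, read out with a cell viability assay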
# Description: SANGER: Inhibition of human TE-1 cell growth in a cell viability assay.
# SK-LMS-1 = format: functional, cell-based, Homo sapiens; conditions: Homo sapiens, SK-LMS-1;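 further: growth inhibition of human SK-LMS-1 cells, read out with a cell viability assay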
# Description: SANGER: Inhibition of human SK-LMS-1 cell growth in a cell viability assay.
# MLMA = format: functional, cell-based, Homo sapiens; conditions: Homo sapiens, MLMA;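 further: growth inhibition of MLMA cells (human), determined through a cell viability readout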
# Description: SANGER: Inhibition of human MLMA cell growth in a cell viability assay.
# NCI-H1838 = format: functional, cell-based, Homo sapiens; conditions: Homo sapiens, NCI-H1838;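 further: growth inhibition of NCI-H1838 cells, determined with a cell viability readout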
# Description: SANGER: Inhibition of human NCI-H1838 cell growth in a cell viability assay.
# NCI-H2126 = format: functional, cell-based, Homo sapiens; conditions: Homo sapiens, NCI-H2126;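 further: growth inhibition of the cancer cell line, determined with a cell viability readout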
# Description: SANGER: Inhibition of human NCI-H2126 cell growth in a cell viability assay.
# NCI-H446 = format: functional, cell-based, Homo sapiens; conditions: Homo sapiens, NCI-H446;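 further: growth inhibition of NCI-H446 cells determined by a cell viability assay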
# Description: SANGER: Inhibition of human NCI-H446 cell growth in a cell viability assay.
# OS-RC-2 = format: functional, cell-based, Homo sapiens; conditions: Homo sapiens, OS-RC-2;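 further: growth inhibition of human OS-RC-2 cells, measured by a cell viability assay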
# Description: SANGER: Inhibition of human OS-RC-2 cell growth in a cell viability assay.
# GT3TKB = format: functional, cell-based, Homo sapiens; conditions: Homo sapiens, GT3TKB;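 further: growth inhibition of the cell line, read out with a cell viability assay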
# Description: SANGER: Inhibition of human GT3TKB cell growth in a cell viability assay.
# COLO-320-HSR = format: functional, cell-based, Homo sapiens; conditions: Homo sapiens, COLO-320-HSR;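 further: growth inhibition of COLO-320-HSR cells, determined with a cell viability assay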
# Description: SANGER: Inhibition of human COLO-320-HSR cell growth in a cell viability assay.
# KS-1 = format: functional, cell-based; conditions: Homo sapiens;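 further: growth inhibition of KS-1 cells, read out with a cell viability assay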
# Description: SANGER: Inhibition of human KS-1 cell growth in a cell viability assay.
# HCE-4 = format: functional, cell-based; conditions: Homo sapiens;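 further: cell viability assay measuring inhibition of growth in the human HCE-4 cell line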
# Description: SANGER: Inhibition of human HCE-4 cell growth in a cell viability assay.
# SK-UT-1 = format: functional, cell-based, Homo sapiens; conditions: Homo sapiens, SK-UT-1;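 further: growth inhibition of SK-UT-1 cells, measured by a cell viability assay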
# Description: SANGER: Inhibition of human SK-UT-1 cell growth in a cell viability assay.
# HD-MY-Z = format: functional, cell-based, Homo sapiens; conditions: Homo sapiens, HD-MY-Z;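 further: growth inhibition of HD-MY-Z cells, read out with a cell viability assay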
# Description: SANGER: Inhibition of human HD-MY-Z cell growth in a cell viability assay.
# DSH1 = format: functional, cell-based; conditions: Homo sapiens;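 further: growth inhibition of human DSH1 cells, measured with a cell viability readout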
# Description: SANGER: Inhibition of human DSH1 cell growth in a cell viability assay.
# ALL-PO = format: functional, cell-based, Homo sapiens; conditions: Homo sapiens, ALL-PO;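 further: growth inhibition of ALL-PO cells, read out by a cell viability assay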
# Description: SANGER: Inhibition of human ALL-PO cell growth in a cell viability assay.
# AM-38 = format: functional, cell-based, Homo sapiens; conditions: Homo sapiens, AM-38;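 further: growth inhibition of AM-38 cells of human origin, read out by a cell viability assay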
# Description: SANGER: Inhibition of human AM-38 cell growth in a cell viability assay.
# KARPAS-299 = format: functional, cell-based, Homo sapiens; conditions: Homo sapiens, KARPAS-299
# Description: SANGER: Inhibition of human KARPAS-299 cell growth in a cell viability assay.
# A253 cell line = format: functional, cell-based, Homo sapiens; conditions: Homo sapiens, A253;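 further: growth inhibition of A253 cells, read out with a cell viability assay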
# Description: SANGER: Inhibition of human A253 cell growth in a cell viability assay.
# TE-6 = format: functional, cell-based, Homo sapiens; conditions: Homo sapiens, TE-6;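 further: growth inhibition of TE-6 cells, read out with a cell viability assay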
# Description: SANGER: Inhibition of human TE-6 cell growth in a cell viability assay.
# LB2518-MEL = format: functional, cell-based; conditions: Homo sapiens;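 further: growth inhibition of human LB2518-MEL cells, measured with a cell viability assay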
# Description: SANGER: Inhibition of human LB2518-MEL cell growth in a cell viability assay.
# SW982 = format: functional, cell-based; conditions: Homo sapiens;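 further: growth inhibition of SW982 cells, read out with a cell viability assay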
# Description: SANGER: Inhibition of human SW982 cell growth in a cell viability assay.
# RPMI-8226 = format: functional, cell-based, Homo sapiens; conditions: Homo sapiens, RPMI-8226
# Description: SANGER: Inhibition of human RPMI-8226 cell growth in a cell viability assay.
# LNCaP-Clone-FGC = format: functional, cell-based, Homo sapiens; conditions: Homo sapiens, LNCaP-Clone-FGC
# Description: SANGER: Inhibition of human LNCaP-Clone-FGC cell growth in a cell viability assay.
# EKVX = format: functional, cell-based, Homo sapiens; conditions: Homo sapiens, EKVX;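 further: growth inhibition of human EKVX cells, read out with a cell viability assay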
# Description: SANGER: Inhibition of human EKVX cell growth in a cell viability assay.
# A3-KAW = format: functional, cell-based, Homo sapiens; conditions: Homo sapiens, A3-KAW;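 further: growth inhibition of human A3-KAW cells, read out with a cell viability assay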
# Description: SANGER: Inhibition of human A3-KAW cell growth in a cell viability assay.
# D-502MG = format: functional, cell-based, Homo sapiens; conditions: Homo sapiens, D-502MG
# Description: SANGER: Inhibition of human D-502MG cell growth in a cell viability assay.
# NCI-H1304 = format: functional, cell-based, Homo sapiens; conditions: Homo sapiens, NCI-H1304;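 further: growth inhibition of the cancer cell line, measured in a cell viability assay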
# Description: SANGER: Inhibition of human NCI-H1304 cell growth in a cell viability assay.
# MHH-PREB-1 = format: functional, cell-based, Homo sapiens; conditions: Homo sapiens, MHH-PREB-1;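 further: cell viability assay measuring inhibition of proliferation of human MHH-PREB-1 cells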
# Description: SANGER: Inhibition of human MHH-PREB-1 cell growth in a cell viability assay.
smiles,measurement,setting,value
C=CC(=O)N1CCCC(Nc2nc(Nc3ccc(N(C)C(=O)CC)cc3)nc3[nH]cnc23)C1 (stereo not given),IC50,NCI-H1581,> 10.2 µM
same,IC50,GOTO,> 10.2 µM
same,IC50,HT-144,> 10.2 µM
same,IC50,OMC-1,> 10.2 µM
same,IC50,TGW,> 10.2 µM
same,IC50,KURAMOCHI,> 10.2 µM
same,IC50,LB2241-RCC,> 10.2 µM
same,IC50,Calu-6,> 10.2 µM
same,IC50,NCI-H747,> 10.2 µM
same,IC50,KINGS-1,> 10.2 µM
same,IC50,NKM-1,> 10.2 µM
same,IC50,NB13,> 10.2 µM
same,IC50,GCIY,> 10.2 µM
same,IC50,KM-H2,> 10.2 µM
same,IC50,CW-2,> 10.2 µM
same,IC50,NMC-G1,> 10.2 µM
same,IC50,NOMO-1,> 10.2 µM
same,IC50,HL-60,> 10.2 µM
same,IC50,EW-1,> 10.2 µM
same,IC50,MN-60,> 10.2 µM
same,IC50,LB996-RCC,> 10.2 µM
same,IC50,HOP-62,> 10.2 µM
same,IC50,TE-1,> 10.2 µM
same,IC50,SK-LMS-1,> 10.2 µM
same,IC50,MLMA,> 10.2 µM
same,IC50,NCI-H1838,> 10.2 µM
same,IC50,NCI-H2126,> 10.2 µM
same,IC50,NCI-H446,> 10.2 µM
same,IC50,OS-RC-2,> 10.2 µM
same,IC50,GT3TKB,> 10.2 µM
same,IC50,COLO-320-HSR,> 10.2 µM
same,IC50,KS-1,8.01 µM
same,IC50,HCE-4,> 10.2 µM
same,IC50,SK-UT-1,> 10.2 µM
same,IC50,HD-MY-Z,> 10.2 µM
same,IC50,DSH1,> 10.2 µM
same,IC50,ALL-PO,> 10.2 µM
same,IC50,AM-38,> 10.2 µM
same,IC50,KARPAS-299,> 10.2 µM
same,IC50,A253 cell line,> 10.2 µM
same,IC50,TE-6,> 10.2 µM
same,IC50,LB2518-MEL,> 10.2 µM
same,IC50,SW982,> 10.2 µM
same,IC50,RPMI-8226,> 10.2 µM
same,IC50,LNCaP-Clone-FGC,> 10.2 µM
same,IC50,EKVX,> 10.2 µM
same,IC50,A3-KAW,> 10.2 µM
same,IC50,D-502MG,> 10.2 µM
same,IC50,NCI-H1304,> 10.2 µM
same,IC50,MHH-PREB-1,> 10.2 µM
O=S(=O)(O)c1ccc2cc(/N=N/c3cc(S(=O)(=O)O)c4cccnc4c3O)ccc2c1,IC50,NCI-H1581,> 16 µM
same,IC50,GOTO,> 16 µM
same,IC50,HT-144,> 16 µM
same,IC50,OMC-1,> 16 µM
same,IC50,TGW,> 16 µM
same,IC50,KURAMOCHI,> 16 µM
same,IC50,LB2241-RCC,> 16 µM
same,IC50,Calu-6,> 16 µM
same,IC50,NCI-H747,> 16 µM
same,IC50,KINGS-1,> 16 µM
same,IC50,NKM-1,> 16 µM
same,IC50,NB13,> 16 µM
same,IC50,GCIY,> 16 µM
same,IC50,KM-H2,> 16 µM
same,IC50,CW-2,> 16 µM
same,IC50,NMC-G1,> 16 µM
same,IC50,NOMO-1,> 16 µM
same,IC50,HL-60,> 16 µM
same,IC50,EW-1,> 16 µM
same,IC50,MN-60,> 16 µM
same,IC50,LB996-RCC,> 16 µM
same,IC50,HOP-62,> 16 µM
same,IC50,TE-1,> 16 µM
same,IC50,SK-LMS-1,9.45 µM
same,IC50,MLMA,> 16 µM
same,IC50,NCI-H1838,> 16 µM
same,IC50,NCI-H2126,> 16 µM
same,IC50,NCI-H446,> 16 µM
same,IC50,OS-RC-2,> 16 µM
same,IC50,GT3TKB,> 16 µM
same,IC50,COLO-320-HSR,> 16 µM
same,IC50,KS-1,> 16 µM
same,IC50,HCE-4,> 16 µM
same,IC50,SK-UT-1,> 16 µM
same,IC50,HD-MY-Z,> 16 µM
same,IC50,DSH1,> 16 µM
same,IC50,ALL-PO,> 16 µM
same,IC50,AM-38,> 16 µM
same,IC50,KARPAS-299,> 16 µM
same,IC50,A253 cell line,> 16 µM
same,IC50,TE-6,> 16 µM
same,IC50,LB2518-MEL,> 16 µM
same,IC50,SW982,> 16 µM
same,IC50,RPMI-8226,> 16 µM
same,IC50,LNCaP-Clone-FGC,> 16 µM
same,IC50,EKVX,> 16 µM
same,IC50,A3-KAW,> 16 µM
same,IC50,D-502MG,> 16 µM
same,IC50,NCI-H1304,> 16 µM
same,IC50,MHH-PREB-1,> 16 µM
NC(=O)c1cccc(-c2cc(Nc3ccc(OC(F)(F)F)cc3)ncn2)c1,IC50,NCI-H1581,> 1.28 µM
same,IC50,GOTO,> 1.28 µM
same,IC50,HT-144,> 1.28 µM
same,IC50,OMC-1,> 1.28 µM
same,IC50,TGW,> 1.28 µM
same,IC50,KURAMOCHI,> 1.28 µM
same,IC50,LB2241-RCC,> 1.28 µM
same,IC50,Calu-6,> 1.28 µM
same,IC50,NCI-H747,> 1.28 µM
same,IC50,KINGS-1,> 1.28 µM
same,IC50,NKM-1,> 1.28 µM
same,IC50,NB13,> 1.28 µM
same,IC50,GCIY,> 1.28 µM
same,IC50,KM-H2,> 1.28 µM
same,IC50,CW-2,> 1.28 µM
same,IC50,NMC-G1,> 1.28 µM
same,IC50,NOMO-1,> 1.28 µM
same,IC50,HL-60,> 1.28 µM
same,IC50,EW-1,> 1.28 µM
same,IC50,MN-60,> 1.28 µM
same,IC50,LB996-RCC,> 1.28 µM
same,IC50,HOP-62,> 1.28 µM
same,IC50,TE-1,> 1.28 µM
same,IC50,SK-LMS-1,> 1.28 µM
same,IC50,MLMA,> 1.28 µM
same,IC50,NCI-H1838,> 1.28 µM
same,IC50,NCI-H2126,> 1.28 µM
same,IC50,NCI-H446,> 1.28 µM
same,IC50,OS-RC-2,> 1.28 µM
same,IC50,GT3TKB,> 1.28 µM
same,IC50,COLO-320-HSR,> 1.28 µM
same,IC50,KS-1,> 1.28 µM
same,IC50,HCE-4,> 1.28 µM
same,IC50,SK-UT-1,> 1.28 µM
same,IC50,HD-MY-Z,> 1.28 µM
same,IC50,DSH1,> 1.28 µM
same,IC50,ALL-PO,> 1.28 µM
same,IC50,AM-38,> 1.28 µM
same,IC50,KARPAS-299,> 1.28 µM
same,IC50,A253 cell line,> 1.28 µM
same,IC50,TE-6,> 1.28 µM
same,IC50,LB2518-MEL,> 1.28 µM
same,IC50,SW982,> 1.28 µM
same,IC50,RPMI-8226,> 1.28 µM
same,IC50,LNCaP-Clone-FGC,> 1.28 µM
same,IC50,EKVX,> 1.28 µM
same,IC50,A3-KAW,> 1.28 µM
same,IC50,D-502MG,> 1.28 µM
same,IC50,NCI-H1304,> 1.28 µM
same,IC50,MHH-PREB-1,> 1.28 µM
